According to publication PMC5653814, “Regiospecific Synthesis of Ring A Fused Withaferin A Isoxazoline Analogues: Induction of Premature Senescence by W-2b in Proliferating Cancer Cells” (Scientific Reports, 2017):
Like-named read-outs stand apart in the source and are kept apart here.

Legend:
[1] = MTT cell viability assay, fR2 normal breast epithelial cells; format: cell-based, human; conditions: human, fR2 normal breast epithelial cells, read-out: Cytotoxicity IC50, fR2
Method: (§1) The cell viability assay was performed according to the procedure previously described with minor modifications. Briefly, MCF7, HCT-116 and fR2 cells were plated in 96 well plates at a density of 5 × 10^3 cells per well and incubated overnight. […] MTT dye solution (2.5 mg/mL) was introduced to the cells in medium 4 h before the completion of the treatment period and the formed formazan crystals were solubilized with DMSO. Optical density was measured with the help of a UV-visible spectrophotometer coupled with microplate reader (TECAN, Infinite M200 Pro), the percent inhibition was calculated and IC50 values were determined with the help of GraphPad Prism software (GraphPad software Inc. CA, USA).
(§2) Data were expressed as the mean ± standard deviation of three independent experiments performed and analyzed by Student’s t-test. IC50 values were determined with the help of GraphPad Prism software Version 5.0 (GraphPad Software, Inc., USA) by taking the log of inhibitor vs. response. A 2-sided value of *P < 0.05 was considered significant in all cases.

MCF7 cells [2] = assay: MTT cell viability assay, MCF7; format: cell-based, human; conditions: read-out: Cytotoxicity IC50, MCF7
Method: as §1, §2

HCT-116 cells [3] = assay: MTT cell viability assay, HCT-116; format: cell-based, human; conditions: read-out: Cytotoxicity IC50, HCT-116
Method: as §1, §2

fR2 cells = assay: MTT cell viability assay, fR2 normal breast epithelial cells; format: cell-based, human; conditions: 48 h, read-out: Cytotoxicity IC50, fR2
Method: as §1, §2

[4] = system: 4T1 mouse mammary carcinoma; assay: In vivo tumor growth, 4T1 mouse mammary carcinoma model; conditions: 25 mg/kg b.w. intraperitoneal, each alternate day for two weeks
Method: The experiment was performed according to the pre-standardized protocol with minor modifications. To evaluate the in vivo anti-tumor efficacy of W-2b, healthy female Balb/c mice (25–30 g) were taken. Animals were randomized into three groups, and six animals were taken per group. For the tumor cells implantation, mouse mammary carcinoma 4T1 cells (1 × 10^6 per 200 μL) diluted in serum-free RPMI medium were injected subcutaneously into the mammary pad of each mouse around the second right mammary gland. A week after tumor cell implantation, when the palpable mammary tumors develop, mice were injected intraperitoneally with either vehicle (normal saline) or 5-FU (25 mg/kg/b.w.) or W-2b (25 mg/kg/b.w.) in each alternative day for two weeks. Tumor sizes were measured in each alternate day after tumor cell injection, and the body weight was recorded once in a week. Mice were sacrificed on the 15th day after treatment initiation, and tumors were dissected out carefully from the mammary pad area.

MCF7 cells [5] = assay: SA-β-gal activity assay, MCF7; format: cell-based, human; conditions: MCF7, five days; doxorubicin 100 nM, WA 2–3 µM
Method: (§3) The procedure was followed as described previously with some modifications. Briefly, MCF7 and HCT-116 cells (0.4 × 10^6 per well) were seeded in six-well plates and treated with indicated concentrations of W-2b along with WA, vehicle and positive control doxorubicin for five days. Cells were accordingly washed twice with PBS, fixed with 4% paraformaldehyde for 5 min, rinsed twice with PBS and incubated with freshly prepared staining solution (40 mM citric acid/Na phosphate buffer, 5 mM K4[Fe(CN)6] 3H2O, 5 mM K3[Fe(CN)6], 150 mM sodium chloride, 2 mM magnesium chloride and 1 mg/ml X-gal in distilled water, pH 6.0) for 48 h at 37 °C. Stained cells were thoroughly washed and air dried in dark. Cells were then observed under bright field microscope (NIKON) for the SA-β-gal positive cells and images were captured at 20x magnification.

HCT-116 cells [6] = assay: SA-β-gal activity assay, HCT-116; format: cell-based, human; conditions: HCT-116, five days; doxorubicin 100 nM, WA 2–3 µM
Method: as §3

[7] = Homo sapiens, HCT-116, 48 h, 48 h

| Compound | IC50 at 48 h [1] | IC50 (MCF7 cells [2]; 48 h) | IC50 (HCT-116 cells [3]; [7]) | IC50 (HCT-116 cells [3]; 48 h) | IC50 (MCF7 cells [2]; Homo sapiens, MCF7, 48 h, 48 h) | also measured |
| --- | --- | --- | --- | --- | --- | --- |
| CC1=C(CO)C(=O)OC(C(C)C2CCC3C4CC5OC56C(O)C5ON=C(c7ccncc7)C5C(=O)C6(C)C4CCC23C)C1 (stereo not drawn) [W-5a, pyridenyl-2-isoxazoline withaferin A] | > 100 µM | 3.52 ± 0.185 µM | 63.8 ± 5.43 µM | – | – | – |
| CC1=C(CO)C(=O)OC(C(C)C2CCC3C4CC5OC56C(O)C5ON=C(c7ccc(F)cc7)C5C(=O)C6(C)C4CCC23C)C1 (stereo not drawn) [W-4a, 4-fluorophenyl-2-isoxazoline withaferin A] | – | > 100 µM | – | 19.6 ± 1.81 µM | – | IC50 (fR2 cells): > 100 µM |
| CC1=C(CO)C(=O)O[C@@H]([C@@H](C)C2CCC3C4C[C@H]5O[C@]56[C@@H](O)[C@@H]5ON=C(c7ccc(Cl)cc7)[C@@H]5C(=O)[C@]6(C)C4CC[C@@]32C)C1 (stereo partly drawn) [W-1b, 4-chlorophenyl-2-isoxazoline withaferin A] | 39.2 ± 3.81 µM | – | 16.2 ± 0.676 µM | – | 1.64 ± 0.267 µM | – |
| CC1=C(CO)C(=O)O[C@@H]([C@@H](C)C2CCC3C4C[C@H]5O[C@]56[C@@H](O)[C@H]5ON=C(c7ccc(Cl)cc7)[C@H]5C(=O)[C@]6(C)C4CC[C@@]32C)C1 (stereo partly drawn) [W-1a, 4-chlorophenyl-2-isoxazoline withaferin A] | 45.8 ± 5.19 µM | – | 5.62 ± 0.412 µM | – | 3.8 ± 0.378 µM | – |
| CC1=C(CO)C(=O)OC(C(C)C2CCC3C4CC5OC56C(O)C5ON=C(c7ccc(Br)cc7)C5C(=O)C6(C)C4CCC23C)C1 (stereo not drawn) [W-3b, 4-bromophenyl-2-isoxazoline withaferin A] | – | 1.82 ± 0.33 µM | – | 15.9 ± 1.67 µM | – | IC50 (fR2 cells): 85.3 ± 9.5 µM |
| CC1=C(CO)C(=O)OC(C(C)C2CCC3C4CC5OC56C(O)C5ON=C(c7ccc(C(F)(F)F)cc7)C5C(=O)C6(C)C4CCC23C)C1 (stereo not drawn) [W-11b, 4-trifluorophenyl-2-isoxazoline withaferin A] | – | 83.3 ± 6.51 µM | – | 4.16 ± 0.344 µM | – | IC50 (fR2 cells): > 100 µM |
| COc1ccc(Br)cc1C1=NOC2C1C(=O)C1(C)C3CCC4(C)C(C(C)C5CC(C)=C(CO)C(=O)O5)CCC4C3CC3OC31C2O (stereo not drawn) [W-7a, 3-bromo-6-methoxyphenyl-2-isoxazoline withaferin A] | > 100 µM | – | 8.1 ± 1.66 µM | – | 70.6 ± 5.18 µM | – |
| COc1cc(C(F)(F)F)ccc1C1=NOC2C1C(=O)C1(C)C3CCC4(C)C(C(C)C5CC(C)=C(CO)C(=O)O5)CCC4C3CC3OC31C2O (stereo not drawn) [W-9b, 2-methoxy-4-trifluorophenyl-2-isoxazoline withaferin A] | 66.2 ± 7.63 µM | – | 15.8 ± 3.31 µM | – | > 100 µM | – |
| CC1=C(CO)C(=O)OC(C(C)C2CCC3C4CC5OC56C(O)C5ON=C(c7ccccc7C(F)(F)F)C5C(=O)C6(C)C4CCC23C)C1 (stereo not drawn) [W-8a, 2-trifluoromethylphenyl-2-isoxazoline withaferin A] | 28.2 ± 4.21 µM | – | 7.5 ± 1.13 µM | – | 17.6 ± 1.68 µM | – |
| CC1=C(CO)C(=O)OC(C(C)C2CCC3C4CC5OC56C(O)C5ON=C(c7ccc(Br)cc7)C5C(=O)C6(C)C4CCC23C)C1 (stereo not drawn) [W-3a, 4-bromophenyl-2-isoxazoline withaferin A] | > 100 µM | 95.5 ± 5.41 µM | – | 45.8 ± 2.34 µM | – | – |
| CC1=C(CO)C(=O)OC(C(C)C2CCC3C4CC5OC56C(O)C5ON=C(c7ccncc7)C5C(=O)C6(C)C4CCC23C)C1 (stereo not drawn) [W-5b, pyridenyl-2-isoxazoline withaferin A] | – | 9.7 ± 0.55 µM | – | 42.4 ± 3.19 µM | – | IC50 (fR2 cells): 91.2 ± 7.33 µM |
| O=c1[nH]cc(F)c(=O)[nH]1 [5-FU, 5-fluorouracil, reference compound] | – | – | – | – | – | Inhibition in tumor volume ([4]; Balb/c mice): 78.4%; Inhibition in tumor weight ([4]; vs normal saline group): 86.7% |
| CC1=C(CO)C(=O)OC(C(C)C2CCC3C4CC5OC56C(O)C5ON=C(c7ccc(Cl)cc7Cl)C5C(=O)C6(C)C4CCC23C)C1 (stereo not drawn) [W-6a] | > 100 µM | 2.28 ± 0.265 µM | – | > 100 µM | – | – |
| CC1=C(CO)C(=O)OC(C(C)C2CCC3C4CC5OC56C(O)C5ON=C(c7ccc(C(F)(F)F)cc7)C5C(=O)C6(C)C4CCC23C)C1 (stereo not drawn) [W-11a, 4-trifluorophenyl-2-isoxazoline withaferin A] | > 100 µM | – | – | 24.5 ± 2.55 µM | > 100 µM | – |
| CC1=C(CO)C(=O)OC(C(C)C2CCC3C4CC5OC56C(O)C5ON=C(c7c(Cl)cccc7Cl)C5C(=O)C6(C)C4CCC23C)C1 (stereo not drawn) [W-10a, 2,6-dichlorophenyl-2-isoxazoline withaferin A] | 98.1 ± 7.18 µM | – | 5.28 ± 0.561 µM | – | 58.3 ± 3.24 µM | – |
| COc1cccc2c1C(=O)c1c(O)c3c(c(O)c1C2=O)C[C@@](O)(C(=O)CO)C[C@@H]3O[C@H]1C[C@H](N)[C@H](O)[C@H](C)O1 [doxorubicin] | – | – | – | – | – | SA-β-gal staining, senescent cells (in words) (MCF7 cells [5]): substantial increase in the number of cells with distinct senescence phenotype; SA-β-gal staining, senescent cells (in words) (HCT-116 cells [6]): substantial increase in the number of cells with distinct senescence phenotype |
| CC1=C(CO)C(=O)O[C@@H]([C@@H](C)[C@H]2CC[C@H]3[C@@H]4C[C@H]5O[C@]56[C@@H](O)C=CC(=O)[C@]6(C)[C@H]4CC[C@]23C)C1 [WA, Withaferin A] | 43.3 ± 3.77 µM | – | 2.58 ± 0.415 µM | – | 1.75 ± 0.376 µM | SA-β-gal staining, senescent cells (in words) (MCF7 cells [5]): very less number of senescent cells; IC50 at 24 h ([1]; 24 h): 51.1 ± 5.18 µM; IC50 at 72 h ([1]; 72 h): 38.3 ± 5.22 µM; IC50 (MCF7 cells [2]; Homo sapiens, MCF7, 24 h, 24 h): 9.18 ± 1.36 µM; IC50 (MCF7 cells [2]; Homo sapiens, MCF7, 72 h, 72 h): 1.46 ± 0.291 µM; IC50 (HCT-116 cells [3]; Homo sapiens, HCT-116, 24 h, 24 h): 4.38 ± 1.67 µM; IC50 (HCT-116 cells [3]; Homo sapiens, HCT-116, 72 h, 72 h): 2.13 ± 0.55 µM; SA-β-gal staining, senescent cells (in words) (HCT-116 cells [6]): very less number of senescent cells |
| CC(=O)OCC1=C(C)C[C@H]([C@@H](C)C2CCC3C4C[C@H]5O[C@]56[C@@H](OC(C)=O)[C@@H]5ON=C(c7ccc(F)cc7)[C@@H]5C(=O)[C@]6(C)C4CC[C@@]32C)OC1=O (stereo partly drawn) [W-12b, 4-fluorophenyl-2-isoxazoline 4,27-acetylwithaferin A] | 75.6 ± 4.82 µM | – | 5.29 ± 0.151 µM | – | 26.9 ± 2.22 µM | – |
| CC1=C(CO)C(=O)OC(C(C)C2CCC3C4CC5OC56C(O)C5ON=C(c7ccc([N+](=O)[O-])cc7)C5C(=O)C6(C)C4CCC23C)C1 (stereo not drawn) [W-2a, 4-nitrophenyl-2-isoxazoline withaferin A] | 52.1 ± 6.6 µM | 5.82 ± 0.418 µM | – | 8.2 ± 0.211 µM | – | – |
| CC1=C(CO)C(=O)OC(C(C)C2CCC3C4CC5OC56C(O)C5ON=C(c7ccc(F)cc7)C5C(=O)C6(C)C4CCC23C)C1 (stereo not drawn) [W-4b, 4-fluorophenyl-2-isoxazoline withaferin A] | > 100 µM | – | – | > 100 µM | > 100 µM | – |
